Earlier results as cited in patent US20140350097A1, “TREATMENT OF HYPOTENSION ASSOCIATED WITH HEMODIALYSIS” (priority 2013, published 2014).

Legend:
[1] = system: LPS-induced hypotension in animals; details: intravenous injection; cited from earlier work
[2] = system: normal animals and animals with hypotensive shock; details: cited from earlier work

## CNC(=N)NCCC[C@H](N)C(=O)O [N-monomethyl-L-arginine, N^G-monomethyl-L-arginine]
[1]
  effect on LPS-induced hypotension: reverse LPS-induced hypotension
[2]
  effect on blood pressure: can cause hypertension
